Tested on: Polistes jokahamae
Assay: Control Test 1: aerosol sprayed on one test wasp in metal mesh cage, control time
Assay type: in vivo
Details: 2 g aerosol sprayed 1 second from approx. 30 cm, observed up to 180 seconds
Description: (§1) Ten grams of ethyl lactate, which is an active ingredient under the present invention, was put in an aerosol can as a liquid concentrate, and then a valve part was installed on the can, after which dimethyl ether was filled through the valve part as a propellant until the weight ratio of the liquid concentrate and the propellant became 1:2, and then a spray button was installed, to obtain 30 g of aerosol test sample in Example 1.
(§2) In Examples 2 to 28 and Comparative Examples 1 to 6, the liquid concentrates shown in Table 1 below were used to obtain 30 g of respective test samples in the same manner as in Example 1.
(§3) After spraying, the time it took for the test wasp to stop behaving normally and begin grooming abnormally and showing agitated behaviors (flapping of wings), and eventually drop to the bottom of the metal gauge, was measured as the control time (in seconds). In Table 1, “IPA” stands for isopropanol, while “%” refers to % by weight.
(§4) It should be noted that “turpentine oil” in Examples 2 and 3 is a plant-based essential oil containing 85% by weight or more of α-pinene which is an active ingredient under the present invention, while Comparative Example 5 contains 1% by weight of isopropyl myristate as a dissolving aid.

Compound | Control time
CCOC(=O)C(C)O (stereo not drawn) [Example 1, Ethyl lactate] | <1 s
CC(C)[C@@H]1CC[C@@H](C)CC1=O [Example 4, Menthone] | <1 s
CC1CCC(C(C)C)C(O)C1 (stereo not drawn) [Example 21, Menthol] | <1 s
C=C(C)C1CC=C(C)C(=O)C1 (stereo not drawn) [Example 23, Carvone] | <1 s
COC(=O)C(C)O (stereo not drawn) [Example 26, Methyl lactate] | <1 s
CCCCOC(=O)C(C)O (stereo not drawn) [Example 27, n-butyl lactate] | <1 s
COC(=O)Cc1ccccc1 [Example 28, Methyl phenyl acetate] | <1 s
CC(C)O [compound 6, IPA, reference compound] | >180 s

Tested on: Vespa mandarinia
Assay: as above
Assay type: in vivo
Details: 2 g aerosol sprayed 1 second from approx. 30 cm, observed up to 180 seconds
Description: as §1, §2, §3, §4

Compound | Control time
C=CC(C)(O)CCC=C(C)C (stereo not drawn) [compound 3, Linalool] | >180 s

Tested on: Polistes rothneyi
Assay: as above
Assay type: in vivo
Details: 2 g aerosol sprayed 1 second from approx. 30 cm, observed up to 180 seconds
Description: as §1, §2, §3, §4

Compound | Control time
COC(=O)c1ccccc1 [Example 6, Methyl benzoate] | <1 s
CCOC(=O)c1ccccc1 [Example 7, Ethyl benzoate] | <1 s
CC(C)=CCCC(C)=CCCC(C)=CCO [Example 8, Farnesol] | <1 s
CC(C)=C1CC[C@@H](C)CC1=O [Example 10, Pulegone] | <1 s
CC(C)=CCCC(C)=CC=O [Example 11, Citral] | <1 s
CC(C)[C@]12CC(=O)[C@H](C)[C@H]1C2 [Example 12, Thujone] | <1 s
CCCCCC(O)CC (stereo not drawn) [Example 13, 3-octanol] | <1 s
O=C(Cc1ccccc1)OCc1ccccc1 [Example 14, Benzyl phenyl acetate] | <1 s
CC12CCC(CC1)C(C)(C)O2 [Example 20, Cineol] | <1 s
α-turpentine [Example 9] | <1 s

Tested on: Vespa simillima
Assay: as above
Assay type: in vivo
Details: 2 g aerosol sprayed 1 second from approx. 30 cm, observed up to 180 seconds
Description: as §1, §2, §3, §4

Compound | Control time
CC(=O)OC1CC(C)CCC1C(C)C (stereo not drawn) [compound 2, Menthyl acetate] | >180 s

Tested on: Vespa ducalis
Assay: as above
Assay type: in vivo
Details: 2 g aerosol sprayed 1 second from approx. 30 cm, observed up to 180 seconds
Description: as §1, §2, §3, §4

Compound | Control time
CC(C)[C@@H]1CC[C@@H](C)CC1=O [Example 5, Menthone] | <1 s
